Measured values reported in US20220323406A1, “METHODS AND COMPOSITIONS FOR DIFFERENTIATING STEM CELLS” (Massachusetts Institute of Technology, priority 2019, published 2022).
Where a name gives a salt, the structure may show the parent alone.

Key:
[1] = test system: ENR+CD organoids (ISC to Paneth cell differentiation); assay: Primary screen: basal (non-stimulated) lysozyme secretion LYZ.NS, 2.5-D 384-well ENR+CD organoid differentiation; type: cell-based, mouse
Description: (§1) High-throughput screening.

[2] = test system: ENR+CD organoids (ISC to Paneth cell differentiation); assay: Primary screen: CCh-stimulated lysozyme secretion LYZ.S, 2.5-D 384-well ENR+CD organoid differentiation; type: cell-based, mouse; details: primary screen
Description: as §1

ENR+CD organoids = assay: Primary screen: ATP (CellTiter-Glo 3D, CTG) cell number/viability, 2.5-D 384-well ENR+CD organoids;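 note: compounds given at plating and again on day 3 over a 6-day differentiation from ENR+CV stem-cell-enriched precursors, ATP measured on day 6, plate median as control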
[3] = primary screen, standard z score, dose 0.08 uM
[4] = primary screen, standard z score, dose 0.40 uM
[5] = primary screen, standard z score, dose 2.00 uM
[6] = primary screen, standard z score, dose 10.00 uM
[7] = primary screen, dose 0.08 uM, FC relative to plate median
[8] = primary screen, dose 0.08 uM, standard z score
[9] = primary screen, dose 0.40 uM, FC relative to plate median
[10] = primary screen, dose 0.40 uM, standard z score
[11] = primary screen, dose 2.00 uM, FC relative to plate median
[12] = primary screen, dose 2.00 uM, standard z score
[13] = primary screen, dose 10.00 uM, FC relative to plate median
[14] = primary screen, dose 10.00 uM, standard z score
[15] = dose 0.08 uM, FC relative to plate median
[16] = dose 0.40 uM, FC relative to plate median
[17] = dose 2.00 uM, FC relative to plate median
[18] = dose 10.00 uM, FC relative to plate median

| SMILES | Dose.FC.LYZ.NS ([1]; primary screen, dose 0.08 uM) | Dose.FC.LYZ.NS ([1]; primary screen, dose 0.40 uM) | Dose.FC.LYZ.NS ([1]; primary screen, dose 2.00 uM) | Dose.FC.LYZ.NS ([1]; primary screen, dose 10.00 uM) | Dose.FC.LYZ.S ([2]; dose 0.08 uM) | Dose.FC.LYZ.S ([2]; dose 0.40 uM) | Dose.FC.LYZ.S ([2]; dose 2.00 uM) | Dose.FC.LYZ.S ([2]; dose 10.00 uM) | Dose.FC.CTG (ENR+CD organoids; primary screen, dose 0.08 uM) | Dose.FC.CTG (ENR+CD organoids; primary screen, dose 0.40 uM) | Dose.FC.CTG (ENR+CD organoids; primary screen, dose 2.00 uM) | Dose.FC.CTG (ENR+CD organoids; primary screen, dose 10.00 uM) | Z.LYZ.NS (standard z score) ([1]; primary screen, dose 0.08 uM) | Z.LYZ.NS (standard z score) ([1]; primary screen, dose 0.40 uM) | Z.LYZ.NS (standard z score) ([1]; primary screen, dose 2.00 uM) | Z.LYZ.NS (standard z score) ([1]; primary screen, dose 10.00 uM) | Z.CTG (standard z score) (ENR+CD organoids; primary screen, dose 0.08 uM) | Z.CTG (standard z score) (ENR+CD organoids; primary screen, dose 0.40 uM) | Z.CTG (standard z score) (ENR+CD organoids; primary screen, dose 2.00 uM) | Z.CTG (standard z score) (ENR+CD organoids; primary screen, dose 10.00 uM) | other results |
| --- | --- | --- | --- | --- | --- | --- | --- | --- | --- | --- | --- | --- | --- | --- | --- | --- | --- | --- | --- | --- | --- |
| CCOC(=O)c1ccc(NC2CCCCC2)c(N)c1 [Ferrostatin-1 (Fer-1)] | 0.108 log2 fold change | 0.116 log2 fold change | 0.070 log2 fold change | 0.013 log2 fold change | 0.120 log2 fold change | 0.207 log2 fold change | 0.092 log2 fold change | −0.018 log2 fold change | 0.312 log2 fold change | 0.453 log2 fold change | 0.215 log2 fold change | −0.046 log2 fold change |  |  |  |  |  |  |  |  | Z.LYZ.NS [1, 3]: 0.944; Z.LYZ.NS [1, 4]: 1.012; Z.LYZ.NS [1, 5]: 0.610; Z.LYZ.NS [1, 6]: 0.116; Z.CTG (ENR+CD organoids; [3]): 0.745; Z.CTG (ENR+CD organoids; [4]): 1.082; Z.CTG (ENR+CD organoids; [5]): 0.514; Z.CTG (ENR+CD organoids; [6]): −0.109 |
| COc1cc(N2CCN(C)CC2)ccc1Nc1nccc(-c2cn(C)c3cnccc23)n1 [AZ191] | 0.128 log2 fold change | 0.082 log2 fold change | 0.058 log2 fold change | −0.148 log2 fold change | 0.143 log2 fold change | 0.199 log2 fold change | 0.097 log2 fold change | −0.200 log2 fold change | 0.292 log2 fold change | 0.337 log2 fold change | 0.150 log2 fold change | −0.533 log2 fold change | 1.111 | 0.717 | 0.507 | −1.289 | 0.697 | 0.804 | 0.358 | −1.272 |  |
| N#C[C@@H]1CCCN1C(=O)CNC12CC3CC(CC(O)(C3)C1)C2 [Vildagliptin (LAF-237)] | 0.148 log2 fold change | 0.230 log2 fold change | 0.170 log2 fold change | 0.097 log2 fold change | 0.099 log2 fold change | 0.113 log2 fold change | 0.038 log2 fold change | 0.013 log2 fold change | 0.232 log2 fold change | 0.229 log2 fold change | 0.150 log2 fold change | 0.339 log2 fold change | 1.285 | 2.004 | 1.478 | 0.846 | 0.553 | 0.547 | 0.358 | 0.811 |  |
| CC(C)(C)c1cc(NC(=O)Nc2ccc(-c3cn4c(n3)sc3cc(OCCN5CCOCC5)ccc34)cc2)no1 [Quizartinib (AC220)] |  |  |  |  |  |  |  |  |  |  |  |  |  |  |  |  |  |  |  |  | Dose.FC.LYZ.NS [1, 7]: 0.096 log2 fold change; Z.LYZ.NS [1, 8]: 0.836; Dose.FC.LYZ.NS [1, 9]: 0.039 log2 fold change; Z.LYZ.NS [1, 10]: 0.341; Dose.FC.LYZ.NS [1, 11]: −0.052 log2 fold change; Z.LYZ.NS [1, 12]: −0.452; Dose.FC.LYZ.NS [1, 13]: −0.173 log2 fold change; Z.LYZ.NS [1, 14]: −1.505; Dose.FC.LYZ.S [2, 15]: 0.154 log2 fold change; Dose.FC.LYZ.S [2, 16]: 0.083 log2 fold change; Dose.FC.LYZ.S [2, 17]: −0.077 log2 fold change; Dose.FC.LYZ.S [2, 18]: −0.200 log2 fold change; Dose.FC.CTG (ENR+CD organoids; [7]): 0.351 log2 fold change; Z.CTG (ENR+CD organoids; [8]): 0.838; Dose.FC.CTG (ENR+CD organoids; [9]): 0.149 log2 fold change; Z.CTG (ENR+CD organoids; [10]): 0.355; Dose.FC.CTG (ENR+CD organoids; [11]): −0.352 log2 fold change; Z.CTG (ENR+CD organoids; [12]): −0.841; Dose.FC.CTG (ENR+CD organoids; [13]): −0.644 log2 fold change; Z.CTG (ENR+CD organoids; [14]): −1.539 |
| CC(=O)OCC(=O)NCCCOc1cccc(CN2CCCCC2)c1 [Roxatidine Acetate HCl] |  |  |  |  |  |  |  |  |  |  |  |  |  |  |  |  |  |  |  |  | Dose.FC.LYZ.NS [1, 7]: 0.149 log2 fold change; Z.LYZ.NS [1, 8]: 1.295; Dose.FC.LYZ.NS [1, 9]: −0.029 log2 fold change; Z.LYZ.NS [1, 10]: −0.256; Dose.FC.LYZ.NS [1, 11]: −0.001 log2 fold change; Z.LYZ.NS [1, 12]: −0.009; Dose.FC.LYZ.NS [1, 13]: −0.061 log2 fold change; Z.LYZ.NS [1, 14]: −0.534; Dose.FC.LYZ.S [2, 15]: 0.035 log2 fold change; Dose.FC.LYZ.S [2, 16]: 0.099 log2 fold change; Dose.FC.LYZ.S [2, 17]: −0.053 log2 fold change; Dose.FC.LYZ.S [2, 18]: −0.104 log2 fold change; Dose.FC.CTG (ENR+CD organoids; [7]): −0.040 log2 fold change; Dose.FC.CTG (ENR+CD organoids; [9]): 0.021 log2 fold change; Dose.FC.CTG (ENR+CD organoids; [11]): −0.103 log2 fold change; Dose.FC.CTG (ENR+CD organoids; [13]): −0.236 log2 fold change |
| O=S(=O)(c1ccccc1)N(CC(F)(F)F)c1ccc(C(O)(C(F)(F)F)C(F)(F)F)cc1 [T0901317] |  |  |  |  |  |  |  |  |  |  |  |  |  |  |  |  |  |  |  |  | Dose.FC.LYZ.NS [1, 7]: 0.086 log2 fold change; Z.LYZ.NS [1, 8]: 0.748; Dose.FC.LYZ.NS [1, 9]: 0.042 log2 fold change; Z.LYZ.NS [1, 10]: 0.369; Dose.FC.LYZ.NS [1, 11]: 0.074 log2 fold change; Z.LYZ.NS [1, 12]: 0.644; Dose.FC.LYZ.NS [1, 13]: −0.015 log2 fold change; Z.LYZ.NS [1, 14]: −0.130; Dose.FC.LYZ.S [2, 15]: 0.111 log2 fold change; Dose.FC.LYZ.S [2, 16]: 0.077 log2 fold change; Dose.FC.LYZ.S [2, 17]: 0.070 log2 fold change; Dose.FC.LYZ.S [2, 18]: −0.034 log2 fold change; Dose.FC.CTG (ENR+CD organoids; [7]): 0.047 log2 fold change; Dose.FC.CTG (ENR+CD organoids; [9]): 0.178 log2 fold change; Dose.FC.CTG (ENR+CD organoids; [11]): 0.096 log2 fold change; Dose.FC.CTG (ENR+CD organoids; [13]): 0.114 log2 fold change |
| CN[C@H]1CC[C@@H](c2ccc(Cl)c(Cl)c2)c2ccccc21 [Sertraline HCl] |  |  |  |  |  |  |  |  |  |  |  |  |  |  |  |  |  |  |  |  | Dose.FC.LYZ.NS [1, 7]: −0.026 log2 fold change; Z.LYZ.NS [1, 8]: −0.227; Dose.FC.LYZ.NS [1, 9]: −0.082 log2 fold change; Z.LYZ.NS [1, 10]: −0.714; Dose.FC.LYZ.NS [1, 11]: 0.052 log2 fold change; Z.LYZ.NS [1, 12]: 0.450; Dose.FC.LYZ.NS [1, 13]: −0.005 log2 fold change; Z.LYZ.NS [1, 14]: −0.044; Dose.FC.LYZ.S [2, 15]: −0.048 log2 fold change; Dose.FC.LYZ.S [2, 16]: −0.076 log2 fold change; Dose.FC.LYZ.S [2, 17]: 0.023 log2 fold change; Dose.FC.LYZ.S [2, 18]: −0.021 log2 fold change; Dose.FC.CTG (ENR+CD organoids; [7]): −0.079 log2 fold change; Dose.FC.CTG (ENR+CD organoids; [9]): 0.087 log2 fold change; Dose.FC.CTG (ENR+CD organoids; [11]): 0.066 log2 fold change; Dose.FC.CTG (ENR+CD organoids; [13]): 0.043 log2 fold change |
| CS(=O)(=O)c1ccc(-c2cnc(N)c(C(=O)Nc3ccccc3)n2)cc1 [VE-821] | 0.106 log2 fold change | 0.063 log2 fold change | 0.103 log2 fold change | −0.284 log2 fold change | 0.130 log2 fold change | 0.089 log2 fold change | −0.004 log2 fold change | −0.429 log2 fold change | 0.213 log2 fold change | 0.130 log2 fold change | −0.137 log2 fold change | −0.840 log2 fold change | 0.924 | 0.544 | 0.901 | −2.475 |  |  |  |  |  |
| NC(=O)Nc1cc(-c2cccc(F)c2)sc1C(=O)N[C@H]1CCCNC1 [AZD7762] | 0.010 log2 fold change | −0.159 log2 fold change | −0.211 log2 fold change | −0.220 log2 fold change | 0.019 log2 fold change | −0.251 log2 fold change | −0.342 log2 fold change | −0.369 log2 fold change | 0.054 log2 fold change | −0.384 log2 fold change | −0.804 log2 fold change | −1.361 log2 fold change | 0.084 | −1.385 | −1.835 | −1.917 | 0.129 | −0.917 | −1.920 | −3.251 |  |
| CC(C)CCN1c2nc(Nc3cc(F)c(O)c(F)c3)ncc2N(C)C(=O)C1C (stereo not shown) [BI-D1870] | 0.141 log2 fold change | 0.126 log2 fold change | −0.066 log2 fold change | −0.285 log2 fold change | 0.162 log2 fold change | 0.158 log2 fold change | 0.008 log2 fold change | −0.378 log2 fold change | 0.186 log2 fold change | 0.029 log2 fold change | −0.012 log2 fold change | −0.700 log2 fold change | 1.225 | 1.099 | −0.574 | −2.483 | 0.444 | 0.069 | −0.028 | −1.673 |  |
